A word on the IC50: it is the point on the concentration scale where inhibition reaches its midpoint.

The subject of the experiment is IL-4 stimulated expression of CD23 in human Ramos B cells (JAK-1 and JAK-3). The experiment is described as follows: Assay for Ramos B-Cell Line Stimulated with IL-4 (CD23 upregulation, FACS). The experiment is classed as cell-based. The note with it: Ramos B cells stimulated with IL-4, CD23 expression by FACS, read-out: IC50, Example 41. Put shortly:
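Steps: Ramos B cells are suspended in RPMI with 5% serum, exposed to compound for 1 h at 37 °C, stimulated with IL-4 (final 50 units/mL) for 20-24 h, stained for CD23 and analysed by flow cytometry. IC50 is calculated.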
(A flow cytometer gives signals particle by particle.)

Structures can show the parent of a compound that is named as a salt. Where two headings read alike, the source gives them in different places.

In the case of `COC(=O)CNS(=O)(=O)c1cccc(Nc2ncc(F)c(Nc3ccc(OC)c(Cl)c3)n2)c1` [VI-7, N4-(3-Chloro-4-methoxyphenyl)-5-fluoro-N2-[3-(N-methoxycarbonylmethylene)aminosulfonylphenyl]-2,4-pyrimidinediamine], the IC50 is 766 nM.

In the case of `COC(=O)CNS(=O)(=O)c1cccc(Nc2ncc(F)c(Nc3ccc(Cl)c(Cl)c3)n2)c1` [VI-8, N4-(3,4-Dichlorophenyl)-5-fluoro-N2-[3-(N-methoxycarbonylmethylene)aminosulfonylphenyl]-2,4-pyrimidinediamine], the IC50 is 2280 nM.

With `COc1ccc(N(C)c2nc(Nc3ccc(C)c(S(N)(=O)=O)c3)ncc2F)cc1Cl` [VI-19, N2-(3-Aminosulfonyl-4-methylphenyl)-N4-(3-chloro-4-methoxyphenyl)-5-fluoro-N4-methyl-2,4-pyrimidinediamine], the IC50 (Homo sapiens, Ramos) was found to be 1030 nM.

`COc1ccc(N(C)c2nc(Nc3cc(C)c(F)c(S(N)(=O)=O)c3)ncc2F)cc1Cl` [VI-20, N2-(3-Aminosulfonyl-4-fluoro-5-methylphenyl)-N4-(3-chloro-4-methoxyphenyl)-5-fluoro-N4-methyl-2,4-pyrimidinediamine]: the IC50 (Homo sapiens, Ramos) is 726 nM.

With `COc1ccc(N(C)c2nc(Nc3cc(C)c(Cl)c(S(N)(=O)=O)c3)ncc2F)cc1Cl` [VI-21, N2-(3-Aminosulfonyl-4-chloro-5-methylphenyl)-N4-(3-chloro-4-methoxyphenyl)-5-fluoro-N4-methyl-2,4-pyrimidinediamine], the IC50 (Homo sapiens, Ramos) turned out to be 11300 nM.

As to `CCCN(c1ccc(OC)c(Cl)c1)c1nc(Nc2ccc(C)c(S(N)(=O)=O)c2)ncc1F` [VI-22, N2-(3-Aminosulfonyl-4-methylphenyl)-N4-(3-chloro-4-methoxyphenyl)-5-fluoro-N4-propyl-2,4-pyrimidinediamine], the half-inhibitory concentration (IC50) (Homo sapiens, Ramos) is 663 nM.

`CCCN(c1ccc(OC)c(Cl)c1)c1nc(Nc2cc(C)c(F)c(S(N)(=O)=O)c2)ncc1F` [VI-23, N2-(3-Aminosulfonyl-4-fluoro-5-methylphenyl)-N4-(3-chloro-4-methoxyphenyl)-5-fluoro-N4-propyl-2,4-pyrimidinediamine]: the half-maximal inhibitory concentration (IC50) (Homo sapiens, Ramos) stood at 597 nM.

Turning to `CCOC(=O)CN(c1ccc(OC)c(Cl)c1)c1nc(Nc2cccc(S(N)(=O)=O)c2)ncc1C(=O)OCC` [VI-24, N2-(3-Aminosulfonylphenyl)-5-carboethoxy-N4-(N-carboethoxymethylene-N-3-chloro-4-methoxyphenyl)-2,4-pyrimidinediamine], the half-inhibitory concentration (IC50) was 8620 nM.

Turning to `CCOC(=O)CN(c1ccc(OC)c(Cl)c1)c1nc(Nc2ccc(C)c(S(N)(=O)=O)c2)ncc1C(=O)OCC` [VI-25, N2-(3-Aminosulfonyl-4-methylphenyl)-5-carboethoxy-N4-(N-carboethoxymethylene-N-3-chloro-4-methoxyphenyl)-2,4-pyrimidinediamine], the concentration for half-maximal inhibition (IC50) worked out at 9910 nM.

For the molecule `COc1ccc(Nc2nc(Nc3cccc(S(N)(=O)=O)c3)ncc2C#C[Si](C)(C)C)cc1Cl` [VI-28, N2-(3-Aminosulfonylphenyl)-N4-(3-chloro-4-methoxyphenyl)-5-trimethylsilylacetylene-2,4-pyrimidinediamine], the IC50 was determined as 754 nM.

For the molecule `COc1ccc(Nc2nc(Nc3ccncc3S(N)(=O)=O)ncc2F)cc1Cl` [VI-31, N2-(3-Aminosulfonylpyrid-4-yl)-N4-(3-chloro-4-methoxyphenyl)-5-fluoro-2,4-pyrimidinediamine], the IC50 (Homo sapiens, Ramos) was found to be 18300 nM.

In the case of `C#CCOc1ccc(Nc2nc(Nc3ccc(C)c(S(=O)(=O)NC(=O)CC)c3)ncc2F)cc1` [VI-56, 5-Fluoro-N2-(4-methyl-3-propionylaminosulfonylphenyl)-N4-[4-(prop-2-ynyloxy)phenyl]-2,4-pyrimidinediamine], the IC50 was determined as 9660 nM.

With `CCC(=O)NS(=O)(=O)c1cccc(Nc2ncc(F)c(Nc3ccc(CCOC(=O)N(C)C)cc3)n2)c1` [VI-64, N4-{4-[2-(Dimethylaminocarbonyloxy)ethyl]phenyl}-5-fluoro-N2-(3-propionylaminosulfonylphenyl)-2,4-pyrimidinediamine], the half-inhibitory concentration (IC50) (Homo sapiens, Ramos) turned out to be 5800 nM.

As for `CCC(=O)NS(=O)(=O)c1cccc(Nc2ncc(F)c(Nc3ccc(CCOC(=O)N(C)C)cc3)n2)c1` [VI-66, N4-{4-[2-(Dimethylaminocarbonyloxy)ethyl]phenyl}-5-fluoro-N2-(3-propionylaminosulfonylphenyl)-2,4-pyrimidinediamine sodium salt], the IC50 (sodium salt) is 6090 nM.

As to `Cc1ccc(Nc2ncc(F)c(Nc3ccc(CCNC(N)=O)cc3)n2)cc1S(N)(=O)=O` [VI-71, N4-{4-[2-(Aminocarbonylamino)ethyl]phenyl}-N2-(3-aminosulfonyl-4-methylphenyl)-5-fluoro-2,4-pyrimidinediamine], where the note is “Homo sapiens, Ramos”, the half-inhibitory concentration (IC50) worked out at 1070 nM.

Consider `NC(=O)NCCc1ccc(Nc2nc(Nc3cccc(S(N)(=O)=O)c3)ncc2F)cc1` [VI-72, N4-{4-[2-(Aminocarbonylamino)ethyl]phenyl}-N2-(3-aminosulfonylphenyl)-5-fluoro-2,4-pyrimidinediamine], for which, under “Homo sapiens, Ramos”, the IC50 is 455 nM.

Take `C#CCNS(=O)(=O)c1cccc(Nc2ncc(F)c(Nc3ccc(OCC#C)cc3)n2)c1` [VI-78, 5-Fluoro-N2-[3-(prop-2-ynylaminosulfonyl)phenyl]-N4-[4-(prop-2-ynyloxy)phenyl]-2,4-pyrimidinediamine]: the IC50 (Homo sapiens, Ramos) was found to be 161 nM.

As to `C#CCNS(=O)(=O)c1cccc(Nc2nc(Nc3ccc(C)c(S(N)(=O)=O)c3)ncc2F)c1` [VI-79, N2-(3-Aminosulfonyl-4-methylphenyl)-5-fluoro-N4-[3-(prop-2-ynylaminosulfonyl)phenyl]-2,4-pyrimidinediamine], for the setting “Homo sapiens, Ramos”, the IC50 is 96 nM.

For `C#CCNS(=O)(=O)c1cccc(Nc2nc(Nc3ccc(S(N)(=O)=O)cc3)ncc2F)c1` [VI-80, N2-(4-Aminosulfonylphenyl)-5-fluoro-N4-[3-(prop-2-ynylaminosulfonyl)phenyl]-2,4-pyrimidinediamine], where the note is “Homo sapiens, Ramos”, the concentration for half-maximal inhibition (IC50) worked out at 360 nM.

With `C#CCNS(=O)(=O)c1cccc(Nc2nc(Nc3cccc(S(N)(=O)=O)c3)ncc2F)c1` [VI-81, N2-(3-Aminosulfonylphenyl)-5-fluoro-N4-[3-(prop-2-ynylaminosulfonyl)phenyl]-2,4-pyrimidinediamine], the IC50 (Homo sapiens, Ramos) is 3170 nM.

In the case of `CCCCNS(=O)(=O)c1cccc(Nc2ncc(F)c(Nc3ccc(C)c(C#N)c3)n2)c1` [VI-96, N2-(3-Butylaminosulfonylphenyl)-N4-(3-cyano-4-methylphenyl)-5-fluoro-2,4-pyrimidinediamine], for the setting “Homo sapiens, Ramos”, the IC50 stood at 803 nM.

`CCCCNS(=O)(=O)c1cccc(Nc2ncc(F)c(Nc3ccc(F)c(Cl)c3)n2)c1` [VI-97, N2-(3-Butylaminosulfonylphenyl)-N4-(3-chloro-4-fluorophenyl)5-fluoro-2,4-pyrimidinediamine]: the IC50 (Homo sapiens, Ramos) is 3010 nM.

For the molecule `NS(=O)(=O)c1cccc(Nc2ncc(F)c(Nc3ccc(O)cc3)n2)c1` [VI-101, N2-(3-Aminosulfonylphenyl)-5-fluoro-N4-(4-hydroxyphenyl)-2,4-pyrimidinediamine], the 50% inhibitory concentration (IC50) (Homo sapiens, Ramos) came to 919 nM.

Take `CCC(=O)NS(=O)(=O)c1cc(Nc2ncc(F)c(Nc3ccc(CCC#N)c(C)c3)n2)ccc1C` [VI-103, N4-[4(2-Cyanoethyl)-3-methylphenyl]-5-fluoro-N2-(4-methyl-3-propionylaminosulfonylphenyl)-2,4-pyrimidinediamine]: the 50% inhibitory concentration (IC50) (Homo sapiens, Ramos) came out at 3080 nM.

On to `CCC(=O)NS(=O)(=O)c1cc(Nc2ncc(F)c(Nc3ccc(CCC#N)c(C)c3)n2)ccc1C` [VI-104, N4-[4-(2-Cyanoethyl)-3-methylphenyl]-5-fluoro-N2-(4-methyl-3-propionylaminosulfonylphenyl)-2,4-pyrimidinediamine Sodium Salt], for which the IC50 (sodium salt) was determined as 1980 nM.

For `CCN(CC)S(=O)(=O)c1cc(Nc2ncc(F)c(N(C)c3ccc(Cl)c(Cl)c3)n2)ccc1OC` [VI-105, N4-(3,4-dichlorophenyl)-N4-methyl-5-fluoro-N2-[3-(N,N-diethyl)aminosulfonyl-4-methoxyphenyl]-2,4-pyrimidinediamine], the IC50 (Homo sapiens, Ramos) came to 10300 nM.

For the molecule `NS(=O)(=O)c1cccc(Nc2ncc(F)c(Nc3cccc(S(N)(=O)=O)c3)n2)c1` [VI-113, N2,N4-Bis-(3-aminosulfonylphenyl)-5-fluoro-2,4-pyrimidinediamine], where the note is “Homo sapiens, Ramos”, the concentration for half-maximal inhibition (IC50) turned out to be 700 nM.

Take `NS(=O)(=O)c1cc(Nc2ncc(F)c(Nc3ccc(Cl)c(S(N)(=O)=O)c3)n2)ccc1Cl` [VI-115, N2,N4-Bis-(3-aminosulfonyl-4-chlorophenyl)-5-fluoro-2,4-pyrimidinediamine]: where the note is “Homo sapiens, Ramos”, the IC50 was 890 nM.

Consider `COC(=O)[C@@H]1C[C@@H](Nc2nc(Nc3ccc(C)c(S(N)(=O)=O)c3)ncc2F)CN1C(=O)CC#N` [VII-1, N2-(3-Aminosulfonyl-4-methylphenyl)-N4-[(2S,4R)-1-(2-cyanoacetyl)-2-methoxycarbonylpyrrolidin-4-yl]-5-fluoro-2,4-pyrimidinediamine], for which, where the note is “Homo sapiens, Ramos”, the IC50 amounted to 6650 nM.

With `COC(=O)[C@@H]1C[C@H](Nc2nc(Nc3ccc(C)c(S(N)(=O)=O)c3)ncc2F)CN1C(=O)CC#N` [VII-2, N2-(3-Aminosulfonyl-4-methylphenyl)-N4-[(2S,4S)-1-(2-cyanoacetyl)-2-methoxycarbonylpyrrolidin-4-yl]-5-fluoro-2,4-pyrimidinediamine], the half-maximal inhibitory concentration (IC50) (Homo sapiens, Ramos) was 36200 nM.

For `CN1C(=O)C(C)(C)S(=O)(=O)c2ccc(Nc3nc(Nc4cccc(S(N)(=O)=O)c4)ncc3F)cc21` [VII-11, N2-(3-Aminosulphonylphenyl)-5-fluoro-N4-(2,2,4-trimethyl-1,1,3-trioxo-benzo[1,4]thiazin-6-yl)-2,4-pyrimidinediamine], under “Homo sapiens, Ramos”, the half-maximal inhibitory concentration (IC50) is 602 nM.

Regarding `Cc1ccc(Nc2ncc(F)c(Nc3ccc4c(c3)CCC(=O)N4)n2)cc1S(N)(=O)=O` [VII-21, N2-(3-Aminosulfonyl-4-methylphenyl)-N4-[3,4-dihydro-(1H)-quinolin-2-one-6-yl]-5-fluoro-2,4-pyrimidinediamine], the half-inhibitory concentration (IC50) (Homo sapiens, Ramos) was found to be 548 nM.

For the origin of these results see US11827628B2, “Compositions and methods for inhibition of the JAK pathway” (Rigel Pharmaceuticals, Inc., priority 2005, dated 2023).
